Experimental data reported in ChEMBL document CHEMBL1201862, “PubChem BioAssay data set” (2004).
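Results reflect a 48-hour exposure of cells in 96-well plates to compound at five concentrations. Here, GI50 denotes the concentration required for 50% inhibition of growth.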 Calls of active or inactive are those of the source. Cut-off read from the data, not from the text of the source: active = GI50 up to about 1.1 µM and inactive = higher.

Legend:
Assay in all cases: NCI anticancer screen, dose series, 48 h
HCT-116 = system: HCT-116
HCT-15 = system: HCT-15
HOP-62 = system: HOP-62
HT-29 = system: HT-29
KM12 = system: KM12
LXFL 529 = system: LXFL 529
M14 = system: M14
NCI-H226 = system: NCI-H226
NCI-H23 = system: NCI-H23
NCI-H522 = system: NCI-H522
SF-268 = system: SF-268
SF-295 = system: SF-295
SN12C = system: SN12C
SNB-19 = system: SNB-19
SW-620 = system: SW-620
TK-10 = system: TK-10
U-251 = system: U-251
EKVX = system: EKVX
NCI/ADR-RES = system: NCI/ADR-RES
T47D = system: T47D

| Structure (SMILES) | GI50 (HCT-116) | GI50 (HCT-15) [µM] | GI50 (HOP-62) | GI50 (HT-29) | GI50 (KM12) | GI50 (LXFL 529) | GI50 (M14) | GI50 (NCI-H226) | GI50 (NCI-H23) | GI50 (NCI-H522) | GI50 (SF-268) | GI50 (SF-295) | GI50 (SN12C) | GI50 (SNB-19) | GI50 (SW-620) | GI50 (TK-10) | GI50 (U-251) | GI50 (EKVX) | GI50 (NCI/ADR-RES) | GI50 (T47D) |
| --- | --- | --- | --- | --- | --- | --- | --- | --- | --- | --- | --- | --- | --- | --- | --- | --- | --- | --- | --- | --- |
| CC(=O)N(O)Cc1ccccc1 | > 100 µM (inactive) | > 100 | > 100 µM (inactive) | > 100 µM (inactive) | > 100 µM (inactive) | > 100 µM (inactive) | > 100 µM (inactive) | > 100 µM (inactive) | > 100 µM (inactive) | > 100 µM (inactive) | > 100 µM (inactive) | > 100 µM (inactive) | > 100 µM (inactive) | > 100 µM (inactive) | > 100 µM (inactive) | > 100 µM (inactive) | > 100 µM (inactive) | – | – | – |
| COc1cc(/C=C/c2ccnc3ccccc23)cc(OC)c1OC | 1.82 µM (inactive) | 2.56 | 7.16 µM (inactive) | 1.28 µM (inactive) | 3.23 µM (inactive) | – | 3.63 µM (inactive) | 5.04 µM (inactive) | 1.66 µM (inactive) | 2.13 µM (inactive) | 3.39 µM (inactive) | 8.47 µM (inactive) | 3.56 µM (inactive) | 10.4 µM (inactive) | 4.93 µM (inactive) | 5.37 µM (inactive) | 4.99 µM (inactive) | 8.87 µM (inactive) | 2.46 µM (inactive) | 3.81 µM (inactive) |
| CCOC(=O)C(C)(C)Oc1ccc2c(=O)cc(-c3ccc(Cl)cc3)oc2c1 | > 100 µM (inactive) | > 100 | > 100 µM (inactive) | > 100 µM (inactive) | – | > 100 µM (inactive) | > 100 µM (inactive) | > 100 µM (inactive) | > 100 µM (inactive) | – | > 100 µM (inactive) | > 100 µM (inactive) | > 100 µM (inactive) | > 100 µM (inactive) | > 100 µM (inactive) | > 100 µM (inactive) | > 100 µM (inactive) | > 100 µM (inactive) | – | – |
| NCC(=O)OCN1C(=O)C2C3C=CC(C2C1=O)C1C2C(=O)N(COC(=O)CN)C(=O)C2C31 (stereo not drawn) | 14.6 µM (inactive) | 16.9 | – | 36.6 µM (inactive) | 20.8 µM (inactive) | 36.2 µM (inactive) | 18.9 µM (inactive) | 39.5 µM (inactive) | 29.2 µM (inactive) | – | 23.4 µM (inactive) | 53.7 µM (inactive) | 23.3 µM (inactive) | 48.8 µM (inactive) | 24.4 µM (inactive) | 53.1 µM (inactive) | 18.7 µM (inactive) | > 100 µM (inactive) | – | – |
| c1ccc(C2=NOC3COc4ccccc4OCC23)cc1 (stereo not drawn) | > 100 µM (inactive) | > 100 | > 100 µM (inactive) | > 100 µM (inactive) | 8.17 µM (inactive) | > 100 µM (inactive) | > 100 µM (inactive) | – | > 100 µM (inactive) | > 100 µM (inactive) | > 100 µM (inactive) | > 100 µM (inactive) | > 100 µM (inactive) | > 100 µM (inactive) | > 100 µM (inactive) | > 100 µM (inactive) | > 100 µM (inactive) | > 100 µM (inactive) | – | – |
| CCc1oc2ccc(OC)c3c2c1C=CC=C3 | – | > 100 | > 100 µM (inactive) | 77.3 µM (inactive) | > 100 µM (inactive) | > 100 µM (inactive) | > 100 µM (inactive) | > 100 µM (inactive) | > 100 µM (inactive) | > 100 µM (inactive) | > 100 µM (inactive) | > 100 µM (inactive) | > 100 µM (inactive) | > 100 µM (inactive) | > 100 µM (inactive) | > 100 µM (inactive) | > 100 µM (inactive) | > 100 µM (inactive) | – | – |
| O=C(O)Cc1ccc(Oc2nc3ccccc3nc2C(=O)O)cc1 | > 100 µM (inactive) | > 100 | > 100 µM (inactive) | > 100 µM (inactive) | > 100 µM (inactive) | – | > 100 µM (inactive) | > 100 µM (inactive) | > 100 µM (inactive) | > 100 µM (inactive) | > 100 µM (inactive) | > 100 µM (inactive) | > 100 µM (inactive) | > 100 µM (inactive) | > 100 µM (inactive) | > 100 µM (inactive) | > 100 µM (inactive) | > 100 µM (inactive) | > 100 µM (inactive) | > 100 µM (inactive) |
| COc1ccc(NC(=O)C(C)Oc2ccc(OCC3CCCCC3)cc2)cc1 (stereo not drawn) | > 100 µM (inactive) | 63 | – | > 100 µM (inactive) | > 100 µM (inactive) | 51.4 µM (inactive) | 70.3 µM (inactive) | > 100 µM (inactive) | 34.5 µM (inactive) | 25.6 µM (inactive) | > 100 µM (inactive) | – | > 100 µM (inactive) | > 100 µM (inactive) | – | > 100 µM (inactive) | > 100 µM (inactive) | – | – | – |
| CCOC(=O)N1C/C(=C\c2ccc(N(C)C)cc2)C(=O)/C(=C/c2ccc(N(C)C)cc2)C1 | > 100 µM (inactive) | > 100 | > 100 µM (inactive) | > 100 µM (inactive) | > 100 µM (inactive) | > 100 µM (inactive) | > 100 µM (inactive) | – | > 100 µM (inactive) | > 100 µM (inactive) | > 100 µM (inactive) | > 100 µM (inactive) | > 100 µM (inactive) | > 100 µM (inactive) | > 100 µM (inactive) | > 100 µM (inactive) | > 100 µM (inactive) | > 100 µM (inactive) | – | – |
| O=S(=O)(c1ccccc1)C(CN1CCCCC1)S(=O)(=O)c1ccccc1 | – | > 100 | > 100 µM (inactive) | > 100 µM (inactive) | > 100 µM (inactive) | > 100 µM (inactive) | > 100 µM (inactive) | > 100 µM (inactive) | > 100 µM (inactive) | > 100 µM (inactive) | > 100 µM (inactive) | > 100 µM (inactive) | > 100 µM (inactive) | > 100 µM (inactive) | > 100 µM (inactive) | > 100 µM (inactive) | > 100 µM (inactive) | – | – | – |
| Cc1ccc(NC(=O)C(=O)C(C(=O)c2ccc3ccccc3c2)C2OC(=O)c3ccccc32)cc1C (stereo not drawn) | 11.8 µM (inactive) | 5.02 | 14.7 µM (inactive) | 33 µM (inactive) | 19.5 µM (inactive) | 8.36 µM (inactive) | 15.6 µM (inactive) | 3.14 µM (inactive) | 4.79 µM (inactive) | 3.03 µM (inactive) | 7.41 µM (inactive) | – | 18.9 µM (inactive) | 5.31 µM (inactive) | 14.7 µM (inactive) | 34.8 µM (inactive) | 3.92 µM (inactive) | 63.5 µM (inactive) | – | – |
| CN(C)c1ccc(/C=C(\NC(=O)c2ccccc2)c2nc3ccc4c(c3[nH]2)C(=O)c2ccccc2C4=O)cc1 | 20.9 µM (inactive) | 34.1 | 61.9 µM (inactive) | 69.3 µM (inactive) | 5.19 µM (inactive) | 39.6 µM (inactive) | 53.8 µM (inactive) | – | 18.1 µM (inactive) | 8.79 µM (inactive) | 7.14 µM (inactive) | 46.6 µM (inactive) | 34 µM (inactive) | > 100 µM (inactive) | 33.2 µM (inactive) | 17.1 µM (inactive) | 31.5 µM (inactive) | 48.1 µM (inactive) | – | – |
| CC(=O)[O-].Cc1ncc(CO)c(/C=N/NC(N)=S)c1[O-].[Zn+2] | > 100 µM (inactive) | > 100 | > 100 µM (inactive) | > 100 µM (inactive) | – | > 100 µM (inactive) | > 100 µM (inactive) | > 100 µM (inactive) | > 100 µM (inactive) | – | > 100 µM (inactive) | > 100 µM (inactive) | > 100 µM (inactive) | > 100 µM (inactive) | > 100 µM (inactive) | > 100 µM (inactive) | > 100 µM (inactive) | > 100 µM (inactive) | – | – |
| CC1CC[C@]2(C(=O)O)CCC3(C)C(=CC(=O)C4[C@@]5(C)CCC(=O)C(C)(C)C5CC[C@]43C)[C@@H]2[C@H]1C (stereo partly drawn) | 18.1 µM (inactive) | – | 22.1 µM (inactive) | 28.4 µM (inactive) | 18.7 µM (inactive) | 18.6 µM (inactive) | 29.5 µM (inactive) | 25.2 µM (inactive) | 25.1 µM (inactive) | 18.4 µM (inactive) | 54.3 µM (inactive) | 31 µM (inactive) | 29.9 µM (inactive) | 40.5 µM (inactive) | 39.9 µM (inactive) | 28.3 µM (inactive) | 27.4 µM (inactive) | 31.6 µM (inactive) | – | – |
| COc1ccc(OC)c2[nH]c(Sc3c([N+](=O)[O-])ncn3C)nc12 | 21.7 µM (inactive) | 16 | > 100 µM (inactive) | 28.4 µM (inactive) | 43.1 µM (inactive) | 13 µM (inactive) | 20.3 µM (inactive) | 14.2 µM (inactive) | 17.5 µM (inactive) | – | 26.5 µM (inactive) | 41.8 µM (inactive) | 19.9 µM (inactive) | > 10 µM (inactive) | 24.5 µM (inactive) | 23.6 µM (inactive) | 28.9 µM (inactive) | 23.1 µM (inactive) | – | – |
| CCC1(O)C(=O)OCc2c1cc1n(c2=O)Cc2cc3cc(OC)c(OC)cc3nc2-1 (stereo not drawn) | 22.3 µM (inactive) | – | 2.79 µM (inactive) | > 100 µM (inactive) | > 100 µM (inactive) | > 100 µM (inactive) | 26.4 µM (inactive) | 14.8 µM (inactive) | 15 µM (inactive) | 8.61 µM (inactive) | 11.4 µM (inactive) | 10.9 µM (inactive) | 5.5 µM (inactive) | 16 µM (inactive) | – | > 100 µM (inactive) | 6.52 µM (inactive) | > 100 µM (inactive) | – | – |
